Laboratory results: the kinase profiling compilation of Christmann-Franck et al. (2016)

What was measured:
CHKA (human) = CHKA (human) (UniProt P35790); assay: ADP detection assay-Luminescence; details: ATP 1 µM
DGKB (human) = DGKB (human) (UniProt Q9Y6T7); assay: ADP detection assay-Luminescence
PIK3CA PIK3R1 (human) = PIK3CA PIK3R1 (human) (UniProt P27986+P42336); assay: ADP detection assay-Luminescence; details: ATP 1000 µM
PIK3CB PIK3R1 (human) = PIK3CB PIK3R1 (human) (UniProt P27986+P42338); assay: ADP detection assay-Luminescence; details: ATP 1000 µM
PIK3CG (human) = PIK3CG (human) (UniProt P48736); assay: ADP detection assay-Luminescence
PIP4K2A (human) = PIP4K2A (human) (UniProt P48426); assay: ADP detection assay-Luminescence
SPHK1 (human) = SPHK1 (human) (UniProt Q9NYA1); assay: ADP detection assay-Luminescence; details: ATP 10 µM
SPHK2 (human) = SPHK2 (human) (UniProt Q9NRA0); assay: ADP detection assay-Luminescence; details: ATP 1 µM
AURKB (human) = AURKB (human) (UniProt Q96GD4); assay: radiometric filter-binding kinase assay; details: ATP 20 µM
BTK (human) = BTK (human) (UniProt Q06187); assay: radiometric filter-binding kinase assay; details: ATP 50 µM
CAMKK2 (human) = CAMKK2 (human) (UniProt Q96RR4); assay: radiometric filter-binding kinase assay; details: ATP 20 µM
CSK (human) = CSK (human) (UniProt P41240); assay: radiometric filter-binding kinase assay; details: ATP 20 µM
CSNK1D (human) = CSNK1D (human) (UniProt P48730); assay: radiometric filter-binding kinase assay; details: ATP 20 µM
DYRK2 (human) = DYRK2 (human) (UniProt Q92630); assay: radiometric filter-binding kinase assay; details: ATP 50 µM
EPHA2 (human) = EPHA2 (human) (UniProt P29317); assay: radiometric filter-binding kinase assay; details: ATP 50 µM
EPHB3 (human) = EPHB3 (human) (UniProt P54753); assay: radiometric filter-binding kinase assay; details: ATP 20 µM
FGFR1 (human) = FGFR1 (human) (UniProt P11362); assay: radiometric filter-binding kinase assay; details: ATP 20 µM
GSK3B (human) = GSK3B (human) (UniProt P49841); assay: radiometric filter-binding kinase assay; details: ATP 5 µM
INSR (human) = INSR (human) (UniProt P06213); assay: radiometric filter-binding kinase assay; details: ATP 20 µM
MAPK12 (human) = MAPK12 (human) (UniProt P53778); assay: radiometric filter-binding kinase assay; details: ATP 5 µM
MAPK3 (human) = MAPK3 (human) (UniProt P27361); assay: radiometric filter-binding kinase assay; details: ATP 5 µM
MKNK1 (human) = MKNK1 (human) (UniProt Q9BUB5); assay: radiometric filter-binding kinase assay; details: ATP 50 µM
MST4 (human) = MST4 (human) (UniProt Q9P289); assay: radiometric filter-binding kinase assay; details: ATP 20 µM
PIM1 (human) = PIM1 (human) (UniProt P11309); assay: radiometric filter-binding kinase assay; details: ATP 20 µM
PIM2 (human) = PIM2 (human) (UniProt Q9P1W9); assay: radiometric filter-binding kinase assay; details: ATP 5 µM
PIM3 (human) = PIM3 (human) (UniProt Q86V86); assay: radiometric filter-binding kinase assay; details: ATP 20 µM
PKN2 (human) = PKN2 (human) (UniProt Q16513); assay: radiometric filter-binding kinase assay; details: ATP 5 µM
RPS6KA5 KD1 KD2 (human) = RPS6KA5 KD1 KD2 (human) (UniProt O75582); assay: radiometric filter-binding kinase assay; details: ATP 100 µM
SYK (human) = SYK (human) (UniProt P43405); assay: radiometric filter-binding kinase assay; details: ATP 20 µM

Sequence of FGFR1 (human) (P11362 whole entry, looked up): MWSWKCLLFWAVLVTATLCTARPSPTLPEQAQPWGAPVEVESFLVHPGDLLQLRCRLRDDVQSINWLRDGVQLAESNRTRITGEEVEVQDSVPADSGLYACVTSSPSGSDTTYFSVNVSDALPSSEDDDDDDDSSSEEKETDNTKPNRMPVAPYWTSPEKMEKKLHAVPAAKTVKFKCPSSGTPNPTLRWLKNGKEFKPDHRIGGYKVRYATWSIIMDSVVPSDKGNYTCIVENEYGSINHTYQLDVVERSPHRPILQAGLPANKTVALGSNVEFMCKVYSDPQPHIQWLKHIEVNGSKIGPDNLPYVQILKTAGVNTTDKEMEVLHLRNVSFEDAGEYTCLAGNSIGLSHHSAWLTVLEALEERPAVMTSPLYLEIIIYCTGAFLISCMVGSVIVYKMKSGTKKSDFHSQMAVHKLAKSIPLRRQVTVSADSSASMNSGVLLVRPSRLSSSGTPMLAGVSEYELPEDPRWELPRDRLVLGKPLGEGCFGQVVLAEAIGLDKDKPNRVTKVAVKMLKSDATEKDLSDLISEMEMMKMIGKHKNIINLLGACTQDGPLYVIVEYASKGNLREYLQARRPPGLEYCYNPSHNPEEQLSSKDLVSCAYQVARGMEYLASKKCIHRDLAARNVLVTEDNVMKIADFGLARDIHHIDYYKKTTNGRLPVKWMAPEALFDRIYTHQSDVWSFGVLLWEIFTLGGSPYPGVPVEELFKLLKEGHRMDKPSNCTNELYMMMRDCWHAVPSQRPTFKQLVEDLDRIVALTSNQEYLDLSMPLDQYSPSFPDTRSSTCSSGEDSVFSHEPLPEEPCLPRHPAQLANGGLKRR
Sequence of MKNK1 (human) (Q9BUB5 whole entry, looked up): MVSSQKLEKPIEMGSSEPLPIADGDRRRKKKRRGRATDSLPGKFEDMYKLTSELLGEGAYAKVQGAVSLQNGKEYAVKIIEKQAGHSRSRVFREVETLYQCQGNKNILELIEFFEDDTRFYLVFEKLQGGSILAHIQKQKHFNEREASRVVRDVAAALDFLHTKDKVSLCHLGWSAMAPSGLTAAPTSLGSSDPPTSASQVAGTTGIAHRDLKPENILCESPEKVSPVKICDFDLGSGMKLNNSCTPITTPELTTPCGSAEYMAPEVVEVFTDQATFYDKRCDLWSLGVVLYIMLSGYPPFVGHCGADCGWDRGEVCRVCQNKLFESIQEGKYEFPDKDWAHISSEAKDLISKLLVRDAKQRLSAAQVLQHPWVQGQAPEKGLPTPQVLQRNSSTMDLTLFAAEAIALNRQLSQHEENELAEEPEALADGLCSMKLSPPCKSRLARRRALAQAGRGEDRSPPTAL
Sequence of PIM1 (human) (P11309 whole entry, looked up): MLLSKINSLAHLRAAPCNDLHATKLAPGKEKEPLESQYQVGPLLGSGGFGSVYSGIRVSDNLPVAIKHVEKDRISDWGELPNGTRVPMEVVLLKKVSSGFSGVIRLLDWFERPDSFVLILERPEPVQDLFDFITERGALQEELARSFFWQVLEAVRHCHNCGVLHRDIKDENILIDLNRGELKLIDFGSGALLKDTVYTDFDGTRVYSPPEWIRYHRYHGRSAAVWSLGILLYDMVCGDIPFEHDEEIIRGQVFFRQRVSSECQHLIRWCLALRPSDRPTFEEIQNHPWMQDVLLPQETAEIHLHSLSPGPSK
Sequence of GSK3B (human) (P49841 whole entry, looked up): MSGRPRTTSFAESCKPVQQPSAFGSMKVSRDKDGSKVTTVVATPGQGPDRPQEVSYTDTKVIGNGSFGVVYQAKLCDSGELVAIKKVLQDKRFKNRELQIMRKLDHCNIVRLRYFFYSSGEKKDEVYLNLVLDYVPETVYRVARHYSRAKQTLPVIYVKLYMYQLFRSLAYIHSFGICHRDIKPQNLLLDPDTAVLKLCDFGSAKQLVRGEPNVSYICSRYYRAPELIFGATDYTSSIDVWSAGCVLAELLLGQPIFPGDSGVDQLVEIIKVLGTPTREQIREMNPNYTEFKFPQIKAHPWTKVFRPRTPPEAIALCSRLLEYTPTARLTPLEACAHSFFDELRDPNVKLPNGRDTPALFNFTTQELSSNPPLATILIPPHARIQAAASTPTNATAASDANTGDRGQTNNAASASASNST
Sequence of AURKB (human) (Q96GD4 whole entry, looked up): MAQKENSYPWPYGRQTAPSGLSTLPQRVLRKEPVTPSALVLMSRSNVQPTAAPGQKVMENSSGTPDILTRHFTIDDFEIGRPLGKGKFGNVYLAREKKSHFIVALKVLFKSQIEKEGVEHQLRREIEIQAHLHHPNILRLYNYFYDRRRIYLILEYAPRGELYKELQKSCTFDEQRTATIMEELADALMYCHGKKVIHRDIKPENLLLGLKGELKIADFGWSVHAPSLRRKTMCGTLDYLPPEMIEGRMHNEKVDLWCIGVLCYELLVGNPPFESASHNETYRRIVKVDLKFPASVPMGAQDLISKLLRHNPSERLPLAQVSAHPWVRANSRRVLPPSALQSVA
Sequence of CAMKK2 (human) (Q96RR4 whole entry, looked up): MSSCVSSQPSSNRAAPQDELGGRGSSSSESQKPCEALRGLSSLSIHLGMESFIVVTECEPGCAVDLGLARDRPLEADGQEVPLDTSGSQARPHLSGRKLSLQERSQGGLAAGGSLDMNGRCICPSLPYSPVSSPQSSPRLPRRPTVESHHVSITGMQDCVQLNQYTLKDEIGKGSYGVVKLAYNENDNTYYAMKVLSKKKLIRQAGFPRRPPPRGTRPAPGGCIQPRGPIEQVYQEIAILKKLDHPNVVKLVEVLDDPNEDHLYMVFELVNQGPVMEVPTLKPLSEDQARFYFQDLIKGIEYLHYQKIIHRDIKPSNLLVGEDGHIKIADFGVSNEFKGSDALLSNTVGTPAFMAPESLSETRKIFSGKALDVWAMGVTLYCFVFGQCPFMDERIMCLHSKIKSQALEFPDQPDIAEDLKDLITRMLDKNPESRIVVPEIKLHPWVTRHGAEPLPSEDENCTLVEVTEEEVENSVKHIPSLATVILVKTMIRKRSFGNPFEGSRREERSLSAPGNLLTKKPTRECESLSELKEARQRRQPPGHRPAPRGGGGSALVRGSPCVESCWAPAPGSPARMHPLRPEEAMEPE
Sequence of INSR (human) (P06213 whole entry, looked up): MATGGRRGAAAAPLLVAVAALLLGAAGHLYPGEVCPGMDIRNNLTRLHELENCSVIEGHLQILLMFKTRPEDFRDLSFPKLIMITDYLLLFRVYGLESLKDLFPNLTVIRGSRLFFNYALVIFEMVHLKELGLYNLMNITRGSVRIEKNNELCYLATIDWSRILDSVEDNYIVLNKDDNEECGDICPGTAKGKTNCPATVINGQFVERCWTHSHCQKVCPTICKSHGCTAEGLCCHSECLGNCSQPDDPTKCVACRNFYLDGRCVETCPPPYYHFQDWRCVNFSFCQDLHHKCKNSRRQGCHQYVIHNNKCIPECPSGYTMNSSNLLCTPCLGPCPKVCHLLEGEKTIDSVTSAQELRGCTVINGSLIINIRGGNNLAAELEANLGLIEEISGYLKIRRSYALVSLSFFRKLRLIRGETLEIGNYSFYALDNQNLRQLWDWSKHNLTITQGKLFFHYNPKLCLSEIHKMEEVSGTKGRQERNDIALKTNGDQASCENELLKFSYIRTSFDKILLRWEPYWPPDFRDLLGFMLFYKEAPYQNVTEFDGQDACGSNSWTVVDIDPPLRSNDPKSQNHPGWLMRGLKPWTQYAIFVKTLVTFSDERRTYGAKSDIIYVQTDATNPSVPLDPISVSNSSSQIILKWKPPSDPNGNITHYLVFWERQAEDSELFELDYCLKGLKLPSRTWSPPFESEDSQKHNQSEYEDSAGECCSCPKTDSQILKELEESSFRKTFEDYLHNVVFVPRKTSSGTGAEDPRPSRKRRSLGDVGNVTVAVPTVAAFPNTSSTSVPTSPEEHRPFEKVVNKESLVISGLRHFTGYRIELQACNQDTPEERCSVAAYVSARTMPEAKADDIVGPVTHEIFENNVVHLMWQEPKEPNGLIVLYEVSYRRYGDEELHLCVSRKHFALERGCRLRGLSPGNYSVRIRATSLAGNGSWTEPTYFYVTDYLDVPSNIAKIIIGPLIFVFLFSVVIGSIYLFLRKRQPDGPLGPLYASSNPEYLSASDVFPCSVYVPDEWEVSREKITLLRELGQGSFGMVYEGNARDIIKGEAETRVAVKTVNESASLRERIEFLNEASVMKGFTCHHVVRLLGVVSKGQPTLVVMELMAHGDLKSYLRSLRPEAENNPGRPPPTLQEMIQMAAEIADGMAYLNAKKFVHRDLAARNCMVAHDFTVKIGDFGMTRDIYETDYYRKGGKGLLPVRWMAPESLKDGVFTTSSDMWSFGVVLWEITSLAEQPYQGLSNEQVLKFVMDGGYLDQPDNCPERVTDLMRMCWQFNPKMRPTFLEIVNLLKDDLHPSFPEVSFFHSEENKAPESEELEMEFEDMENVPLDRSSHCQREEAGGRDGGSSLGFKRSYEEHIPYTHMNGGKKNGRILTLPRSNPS
Sequence of PIM2 (human) (Q9P1W9 whole entry, looked up): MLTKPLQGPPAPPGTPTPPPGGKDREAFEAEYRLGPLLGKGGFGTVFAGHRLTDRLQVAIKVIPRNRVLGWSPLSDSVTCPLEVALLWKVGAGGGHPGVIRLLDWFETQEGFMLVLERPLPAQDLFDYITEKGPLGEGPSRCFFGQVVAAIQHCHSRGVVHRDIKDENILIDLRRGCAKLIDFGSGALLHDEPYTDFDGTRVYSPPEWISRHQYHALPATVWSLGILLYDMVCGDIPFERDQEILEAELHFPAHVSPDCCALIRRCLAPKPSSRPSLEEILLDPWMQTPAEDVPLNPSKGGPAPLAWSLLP

For `CCc1cncnc1N1CCN(Cc2nc3cc(C(F)(F)F)ccc3[nH]2)CC1`, the residual activity (CHKA (human); compound 1.0 µM) was 98%, the residual activity (CHKA (human); compound 10.0 µM) was 94% and the residual activity (DGKB (human); compound 1.0 µM) was 98%. It also gave a residual activity (DGKB (human); compound 10.0 µM) of 99%, a residual activity (PIK3CA PIK3R1 (human); compound 1.0 µM) of 107% and a residual activity (PIK3CA PIK3R1 (human); compound 10.0 µM) of 117%. The residual activity (PIK3CB PIK3R1 (human); compound 1.0 µM) was 103%, the residual activity (PIK3CB PIK3R1 (human); compound 10.0 µM) was 115% and the residual activity (PIK3CG (human); compound 1.0 µM) was 101%. It also gave a residual activity (PIK3CG (human); compound 10.0 µM) of 102%, a residual activity (PIP4K2A (human); compound 1.0 µM) of 101% and a residual activity (PIP4K2A (human); compound 10.0 µM) of 100%. It also gave a residual activity (SPHK1 (human); compound 1.0 µM) of 99%, a residual activity (SPHK1 (human); compound 10.0 µM) of 103% and a residual activity (SPHK2 (human); compound 1.0 µM) of 100%. It also gave a residual activity (SPHK2 (human); compound 10.0 µM) of 98%, a residual activity (AURKB (human); compound 0.1 µM) of 89% and a residual activity (AURKB (human); compound 1.0 µM) of 87%. It also gave a residual activity (AURKB (human); compound 10.0 µM) of 49%, a residual activity (BTK (human); compound 0.1 µM) of 83% and a residual activity (BTK (human); compound 1.0 µM) of 87%. The residual activity (BTK (human); compound 10.0 µM) was 92%, the residual activity (CAMKK2 (human); compound 0.1 µM) was 99% and the residual activity (CAMKK2 (human); compound 1.0 µM) was 98%. For the same compound, the residual activity (CAMKK2 (human); compound 10.0 µM) was 80%, the residual activity (CSK (human); compound 0.1 µM) was 94% and the residual activity (CSK (human); compound 1.0 µM) was 93%. It also gave a residual activity (CSK (human); compound 10.0 µM) of 98%, a residual activity (CSNK1D (human); compound 0.1 µM) of 96% and a residual activity (CSNK1D (human); compound 1.0 µM) of 93%. The residual activity (CSNK1D (human); compound 10.0 µM) was 71%, the residual activity (DYRK2 (human); compound 0.1 µM) was 97% and the residual activity (DYRK2 (human); compound 1.0 µM) was 104%. It also gave a residual activity (DYRK2 (human); compound 10.0 µM) of 101%, a residual activity (EPHA2 (human); compound 0.1 µM) of 95% and a residual activity (EPHA2 (human); compound 1.0 µM) of 86%. It also gave a residual activity (EPHA2 (human); compound 10.0 µM) of 89%, a residual activity (EPHB3 (human); compound 0.1 µM) of 132% and a residual activity (EPHB3 (human); compound 1.0 µM) of 139%. The residual activity (EPHB3 (human); compound 10.0 µM) was 101%, the residual activity (FGFR1 (human); compound 0.1 µM) was 91% and the residual activity (FGFR1 (human); compound 1.0 µM) was 92%. The residual activity (FGFR1 (human); compound 10.0 µM) was 63%, the residual activity (GSK3B (human); compound 0.1 µM) was 87% and the residual activity (GSK3B (human); compound 1.0 µM) was 96%. The residual activity (GSK3B (human); compound 10.0 µM) was 92%, the residual activity (INSR (human); compound 0.1 µM) was 108% and the residual activity (INSR (human); compound 1.0 µM) was 95%. The residual activity (INSR (human); compound 10.0 µM) was 96%, the residual activity (MAPK12 (human); compound 0.1 µM) was 107% and the residual activity (MAPK12 (human); compound 1.0 µM) was 102%. It also gave a residual activity (MAPK12 (human); compound 10.0 µM) of 103%, a residual activity (MAPK3 (human); compound 0.1 µM) of 93% and a residual activity (MAPK3 (human); compound 1.0 µM) of 85%. For the same compound, the residual activity (MAPK3 (human); compound 10.0 µM) was 83%, the residual activity (MKNK1 (human); compound 0.1 µM) was 101% and the residual activity (MKNK1 (human); compound 1.0 µM) was 91%. The residual activity (MKNK1 (human); compound 10.0 µM) was 79%, the residual activity (MST4 (human); compound 0.1 µM) was 87% and the residual activity (MST4 (human); compound 1.0 µM) was 77%. The residual activity (MST4 (human); compound 10.0 µM) was 46%, the residual activity (PIM1 (human); compound 0.1 µM) was 88% and the residual activity (PIM1 (human); compound 1.0 µM) was 90%. It also gave a residual activity (PIM1 (human); compound 10.0 µM) of 78%, a residual activity (PIM2 (human); compound 0.1 µM) of 90% and a residual activity (PIM2 (human); compound 1.0 µM) of 90%. The residual activity (PIM2 (human); compound 10.0 µM) was 100%, the residual activity (PIM3 (human); compound 0.1 µM) was 93% and the residual activity (PIM3 (human); compound 1.0 µM) was 88%. The residual activity (PIM3 (human); compound 10.0 µM) was 83%, the residual activity (PKN2 (human); compound 0.1 µM) was 95% and the residual activity (PKN2 (human); compound 1.0 µM) was 86%. For the same compound, the residual activity (PKN2 (human); compound 10.0 µM) was 84%, the IC50 (RPS6KA5 KD1 KD2 (human)) was 950 nM and the residual activity (RPS6KA5 KD1 KD2 (human); compound 0.1 µM) was 80%. For the same compound, the residual activity (RPS6KA5 KD1 KD2 (human); compound 1.0 µM) was 42%, the residual activity (RPS6KA5 KD1 KD2 (human); compound 10.0 µM) was 14% and the residual activity (SYK (human); compound 0.1 µM) was 121%. The residual activity (SYK (human); compound 1.0 µM) was 100% and the residual activity (SYK (human); compound 10.0 µM) was 91%.
